Measured values as given in patent US12416639B2, “Reagents and methods for detecting protein lysine lactylation” (Jingjie PTM Biolab (Hangzhou) Co., Inc, priority 2018, dated 2025).
Blank lines part the entries; values can stand above or below the compound they belong to.

What was measured:
MCF-7 cells [1] = assay: Intracellular lactate in MCF-7 cells (lactate colorimetric kit); assay type: cell-based, human; conditions: 24 hours
Experimental: (§1) Intracellular lactate (a and d) and histone Kla levels (b and c) were measured from MCF-7 cells cultured in different glucose concentrations or different 2-DG concentrations in the presence of 25 mM glucose for 24 hours. Lactate was measured by a lactate colorimetric kit; n=3 biological replicates; statistical significance was determined using one-way ANOVA followed by Sidak's multiple comparisons test. Immunoblots was carried out using acid-extracted histone samples. The pan anti-Kla and anti-Kac immunoblots indicate molecular weights between 10 kD and 15 kD. e, Regulation of glycolysis and lactate production by diverse metabolic modulators. f, Intracellular lactate levels were measured in MCF-7 cells treated with indicated glycolysis modulators for 24 hours. N=3 biological replicates; statistical significance was determined using one-way ANOVA followed by Dunnett's multiple comparisons test. g-i, Immunoblots of acid extracted histones (Rotenone and DCA) or whole cell lysates (Oxamate) from MCF-7 cells in response to different glycolysis modulators. j, Intracellular lactate levels were measured in MCF-7 cells in response to hypoxia. N=4 biological replicates; statistical significance was determined using unpaired t test (Two-tailed). k, Immunoblots of acid extracted histones from MCF-7 cells under hypoxia (1% oxygen) for indicated time points. a, d, f, j, Graphs show mean with s.e.m. b, c, g, h, i, k, Data represent three independent experiments. […]

MCF-7 cells [2] = assay: Histone Kla levels in MCF-7 cells by immunoblot (pan anti-Kla); assay type: cell-based, human
Experimental: as §1

MCF-7 cells [3] = assay: U-13C6 glucose labeling followed by MS/MS of histone Kla and Kac in MCF-7 cells; assay type: cell-based, human
Experimental: The peptide samples were loaded onto a home-made capillary column (10 cm length×[…], 3 μm particle size, Dr. Maisch GmbH, Ammerbuch, Germany) connected to an EASY-nLC 1000 system (Thermo Fisher Scientific, Waltham, MA). Peptides were separated and eluted with a gradient of 2% to 90% HPLC buffer B (0.1% formic acid in acetonitrile, v/v) in buffer A (0.1% formic acid in water, v/v) at a flow rate of 200 nL/min over 60 min (34 min for coelution studies). The eluted peptides were then ionized and analyzed by a Q-Exactive mass spectrometer (Thermo Fisher Scientific, Waltham, MA). Full MS was acquired in the Orbitrap mass analyzer over the range m/z 300-1400 with a resolution of 70,000 at m/z 200. The 12 most intense ions with charge ≥2 were fragmented with normalized collision energy of 27 and tandem mass spectra were acquired with a mass resolution of 17500 at m/z 200.
MCF-7 cells were cultured in DMEM high glucose media plus 10% FBS. To be labeled by isotopic lactate, cells were treated with 10 mM of ^13C3 sodium L-lactate for 24 hours. To be labeled by isotopic glucose, cells were switched to DMEM No-Glucose media (Gibco) for 24 hours, followed by supplementation with 25 mM of U-^13C6 D-glucose and continued culturing for three passages. Histones were extracted, digested with trypsin, immunoprecipitated using a pan anti-Kla antibody, and analyzed by HPLC/MS/MS as described above.

MCF-7 cells [4] = assay: Hypoxia-induced lactate production and histone Kla; assay type: cell-based, human; conditions: hypoxia (1% oxygen); cell line not given
Experimental: as §1, with “hypoxia.” for “hypoxia. N=4 biological replicates; statistical significance was determined using unpaired t test (Two-tailed). k, Immunoblots of acid extracted histones from MCF-7 cells under hypoxia (1% oxygen) for indicated time points. a, d, f, j, Graphs show mean with s.e.m. b, c, g, h, i, k, Data represent three independent experiments.”

[5] = biological target: T1, recombinant chromatin (p53- and p300-dependent) (Homo sapiens, UniProt Q09472); assay: Cell-free recombinant chromatin-templated histone modification and transcription assay; assay type: biochemical; conditions: acetyl-CoA replaced by L-lactyl-CoA
T1 construct: made in house
Experimental: To examine the potential activity of p300 as a histone Kla writer in cells, we over-expressed p300 in HEK293T cells and observed a modest increase in histone Kla levels. In contrast, p300 deletion in HCT116 and HEK293T cells decreased histone Kla levels.
Purification of recombinant proteins and chromatin assembly were performed as previously described (Tang et al., Cell 154, 297-310, doi:10.1016/j.cell.2013.06.027 (2013)). The chromatin-templated histone modification and transcription assays were as described previously (Tang et al., Cell 154, 297-310, doi:10.1016/j.cell.2013.06.027 (2013)), except that lactyl-CoA was used in place of acetyl-CoA and [α-32P] CTP was used in place of [α-32P]-UTP. The H3KR, H4KR, H2AKR, and H2BKR histone mutants were the same as previously described (Tang et al., Cell 154, 297-310, doi:10.1016/j.cell.2013.06.027 (2013)). Histone modifications were monitored by immunoblot and transcription products were monitored by autoradiography as described (Tang et al., Cell 154, 297-310, doi:10.1016/j.cell.2013.06.027 (2013)).

BMDM cells = assay: M1 polarization (LPS+IFNγ) of BMDM cells: lactate, histone Kla, gene expression, ChIP-qPCR; assay type: cell-based, mouse
Experimental: Intracellular lactate levels were measured using a lactate colorimetric kit (a) and global histone Kla levels were measured by immunoblots (b) 24 h-post M1 polarization. c, Gene expression were analyzed by RT-qPCR at indicated time points after M1 polarization. a-c, N=3 biological replicates. d, H3K18la occupancy was analyzed by ChIP-qPCR 24 h-post M1 polarization. Data represent three technical replicates from pooled samples. e-h, Exogeneous lactic acid (25 mM) was added to BMDM cells 4 h post-M1 polarization (LPS+IFNγ), and cells were collected at indicated time points post-M1 polarization for intracellular lactate measurement (e), histone Kla immunoblot analysis (f), gene expression analysis (g) and H3K18la occupancy analysis by ChIP-qPCR (h). e, N=3 biological replicates, f, Data represent three independent experiments. g, RPKM: Reads Per Kilobase of transcript per Million mapped reads (RPKM). N=4 biological replicates. h, Data represent three technical replicates from pooled samples. a, c, d, e, g, h, Graphs show mean with s.e.m; statistical significance was determined using Multiple t tests corrected using Holm-Sidak method (a, c, e, g).
All animal use and experiments performed were approved by Institutional Animal Care and Use Committee (ACUP #72209) at the University of Chicago. Ldha^fl/fl mice (Jackson laboratory, 030112) and LysMcre mice (Jackson laboratory, 004781) were used to generate LysMcre^+/−Ldha^fl/fl and littermate control LysMcre^−/− Ldha^fl/fl mice. The following primers were used for genotyping: Ldha forward: […] (SEQ ID NO: 88) and Ldha reverse: […] (SEQ ID NO: 89). LysMcre: […] (SEQ ID NO: 90), LysM Common: […] (SEQ ID NO: 91) and LysM WT: […] (SEQ ID NO: 92). Macrophages were derived from bone marrow of 8-week male C57BL/6 mice following the published procedure. To induce an M1 or M2 phenotype, BMDM cells were stimulated with 5 ng/ml of LPS and 12 ng/ml of IFNγ or 20 ng/ml of interleukin 4, for 24 hours or the indicated time. To infect BMDM cells with bacteria, overnight cultures of E. coli, A. baumannii, or P. aeruginosa were diluted in RPMI-1640 and added to BMDM cells in 6-well plates at 2 and 20 multiplicity of infection. A control plate was either infected with paraformaldehyde-killed bacteria or treated with 5 ng/mL lipopolysaccharide (LPS) in the absence of bacteria. The plates were centrifuged at 2170 rpm for 30 min to promote infection, followed by a 30 min incubation in a humidified incubator at 37° C. under 5% CO2. To kill extracellular bacteria, the medium overlying the confluent cell monolayer was replaced with fresh media containing gentamicin at 100 μg/mL and the plates were further incubated for 1 h. Following incubation, media were removed from infected cells and replaced with fresh media containing 25 μg/mL of gentamicin. For consistency, LPS-treated cells and cells infected with dead bacteria were also treated with gentamicin. Cells were cultured for 24 h before lysis. Allocation of BMDM cells into different treated groups were randomized and not blinded.
Total RNA was extracted from BMDM cells activated as indicated using a RNeasy Plus Mini Kit (74134, Qiagen, Hilden, Germany). Two to four micrograms of total RNA were used as starting material to prepare libraries using Illumina TruSeq Stranded mRNA Library Prep Kit Set A (RS-122-2101, Illumina, San Diego, CA). The libraries' size was selected by using the Agencourt AMPure XP beads (A63882, Beckman Coulter, Brea, CA), with average size of 400 bp. The libraries were sequenced using Illumina HiSeq 4000 (pair end 50 bp).
Native ChIP was carried out following the published protocol (Cuddapah et al., Cold Spring Harb Protoc 2009, pdb prot5237, doi:10.1101/pdb.prot5237 (2009)) with spiked-in for normalization purpose. Spike-in was carried out according to vendor protocols (#61686, Active motif, Carlsbad, CA). […]

BMDMs = assay: U-13C6 glucose labeling of histone Kla and Kac in BMDMs during M1 polarization; assay type: cell-based, mouse
From the text: All animal use and experiments performed were approved by Institutional Animal Care and Use Committee (ACUP #72209) at the University of Chicago. Ldha^fl/fl mice (Jackson laboratory, 030112) and LysMcre mice (Jackson laboratory, 004781) were used to generate LysMcre^+/−Ldha^fl/fl and littermate control LysMcre^−/− Ldha^fl/fl mice. The following primers were used for genotyping: Ldha forward: […] (SEQ ID NO: 88) and Ldha reverse: […] (SEQ ID NO: 89). LysMcre: […] (SEQ ID NO: 90), LysM Common: […] (SEQ ID NO: 91) and LysM WT: […] (SEQ ID NO: 92). Macrophages were derived from bone marrow of 8-week male C57BL/6 mice following the published procedure. To induce an M1 or M2 phenotype, BMDM cells were stimulated with 5 ng/ml of LPS and 12 ng/ml of IFNγ or 20 ng/ml of interleukin 4, for 24 hours or the indicated time. To infect BMDM cells with bacteria, overnight cultures of E. coli, A. baumannii, or P. aeruginosa were diluted in RPMI-1640 and added to BMDM cells in 6-well plates at 2 and 20 multiplicity of infection. […]
The peptide samples were loaded onto a home-made capillary column (10 cm length×[…], 3 μm particle size, Dr. Maisch GmbH, Ammerbuch, Germany) connected to an EASY-nLC 1000 system (Thermo Fisher Scientific, Waltham, MA). […] The eluted peptides were then ionized and analyzed by a Q-Exactive mass spectrometer (Thermo Fisher Scientific, Waltham, MA). […]

[6] = M1 polarization, exogenous lactate
[7] = exogenous lactic acid 25 mM added 4 h post-M1 polarization

T1 sequence (Q09472 whole entry): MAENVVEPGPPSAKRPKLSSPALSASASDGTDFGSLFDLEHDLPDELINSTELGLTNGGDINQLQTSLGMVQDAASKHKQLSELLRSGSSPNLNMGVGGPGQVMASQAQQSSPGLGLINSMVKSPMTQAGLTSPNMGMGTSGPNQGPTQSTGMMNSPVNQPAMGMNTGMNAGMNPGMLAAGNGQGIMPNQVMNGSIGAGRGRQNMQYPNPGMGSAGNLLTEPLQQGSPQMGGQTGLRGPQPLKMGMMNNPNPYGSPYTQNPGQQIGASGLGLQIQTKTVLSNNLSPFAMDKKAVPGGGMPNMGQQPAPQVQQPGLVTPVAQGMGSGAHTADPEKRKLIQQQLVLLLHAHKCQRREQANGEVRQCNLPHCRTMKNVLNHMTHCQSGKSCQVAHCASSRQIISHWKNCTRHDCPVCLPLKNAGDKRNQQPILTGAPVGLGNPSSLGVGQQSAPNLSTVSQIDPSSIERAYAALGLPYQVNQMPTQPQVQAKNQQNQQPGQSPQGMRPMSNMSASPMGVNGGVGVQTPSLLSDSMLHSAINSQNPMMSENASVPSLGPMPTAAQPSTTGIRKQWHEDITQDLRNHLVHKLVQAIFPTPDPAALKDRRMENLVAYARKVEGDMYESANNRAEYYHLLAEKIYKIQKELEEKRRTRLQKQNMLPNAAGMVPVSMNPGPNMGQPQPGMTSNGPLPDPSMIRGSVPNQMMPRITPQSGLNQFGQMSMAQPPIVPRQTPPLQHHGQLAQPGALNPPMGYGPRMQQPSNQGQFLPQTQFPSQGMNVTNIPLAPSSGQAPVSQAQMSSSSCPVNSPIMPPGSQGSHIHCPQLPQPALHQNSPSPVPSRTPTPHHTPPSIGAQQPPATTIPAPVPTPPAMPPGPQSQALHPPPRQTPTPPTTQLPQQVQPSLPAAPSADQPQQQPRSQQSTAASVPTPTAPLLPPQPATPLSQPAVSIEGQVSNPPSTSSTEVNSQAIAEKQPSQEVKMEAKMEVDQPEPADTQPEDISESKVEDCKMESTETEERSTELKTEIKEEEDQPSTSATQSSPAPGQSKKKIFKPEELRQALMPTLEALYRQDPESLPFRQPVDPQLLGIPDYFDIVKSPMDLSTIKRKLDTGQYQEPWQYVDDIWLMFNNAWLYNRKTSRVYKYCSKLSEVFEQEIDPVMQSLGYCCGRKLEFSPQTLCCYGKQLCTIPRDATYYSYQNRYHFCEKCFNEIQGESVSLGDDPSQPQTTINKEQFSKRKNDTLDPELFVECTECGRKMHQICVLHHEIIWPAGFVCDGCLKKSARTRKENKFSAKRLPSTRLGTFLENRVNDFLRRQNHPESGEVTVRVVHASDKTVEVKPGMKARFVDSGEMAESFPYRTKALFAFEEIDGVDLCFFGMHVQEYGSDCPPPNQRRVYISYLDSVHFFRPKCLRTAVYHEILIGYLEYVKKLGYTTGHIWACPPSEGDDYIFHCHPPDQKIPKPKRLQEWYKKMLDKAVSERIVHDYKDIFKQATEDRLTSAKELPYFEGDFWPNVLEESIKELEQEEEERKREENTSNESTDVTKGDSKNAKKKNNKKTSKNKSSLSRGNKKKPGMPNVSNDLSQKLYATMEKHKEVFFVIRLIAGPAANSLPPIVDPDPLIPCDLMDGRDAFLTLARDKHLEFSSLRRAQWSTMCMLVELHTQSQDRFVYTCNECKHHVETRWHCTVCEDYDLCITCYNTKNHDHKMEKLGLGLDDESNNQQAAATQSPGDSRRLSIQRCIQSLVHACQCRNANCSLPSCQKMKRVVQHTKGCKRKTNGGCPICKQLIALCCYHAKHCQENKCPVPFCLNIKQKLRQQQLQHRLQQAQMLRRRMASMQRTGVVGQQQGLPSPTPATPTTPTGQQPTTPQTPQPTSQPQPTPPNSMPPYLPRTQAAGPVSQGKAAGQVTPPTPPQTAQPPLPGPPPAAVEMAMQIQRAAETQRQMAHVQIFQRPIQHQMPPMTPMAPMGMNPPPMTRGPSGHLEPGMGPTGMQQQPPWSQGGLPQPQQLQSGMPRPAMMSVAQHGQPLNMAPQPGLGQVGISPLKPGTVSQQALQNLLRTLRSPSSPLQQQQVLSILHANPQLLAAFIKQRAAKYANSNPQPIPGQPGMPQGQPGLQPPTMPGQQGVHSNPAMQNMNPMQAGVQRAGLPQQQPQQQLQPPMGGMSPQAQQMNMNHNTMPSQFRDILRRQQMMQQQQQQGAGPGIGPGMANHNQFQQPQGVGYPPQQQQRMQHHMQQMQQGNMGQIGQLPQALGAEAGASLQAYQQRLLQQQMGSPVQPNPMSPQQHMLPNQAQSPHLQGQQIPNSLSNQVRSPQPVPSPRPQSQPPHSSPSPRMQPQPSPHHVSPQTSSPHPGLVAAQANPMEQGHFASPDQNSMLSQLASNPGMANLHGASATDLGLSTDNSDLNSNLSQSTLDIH

Compound: O=CC[C@@H](O)[C@H](O)[C@H](O)CO [2-DG, 2-deoxy-D-glucose]
intracellular lactate levels / lactate production (MCF-7 cells [1]): decreased | histone Kla levels (MCF-7 cells [2]): decreased

Compound: O=C([O-])C(Cl)Cl.[Na+] [DCA, Sodium dichloroacetate]
intracellular lactate levels / lactate production (MCF-7 cells [1]): decreased | histone Kla levels (MCF-7 cells [2]): lowered | incorporation of 13C into histone Kac (MCF-7 cells [3]): but not Kac was decreased | incorporation of 13C into histone Kla (MCF-7 cells [3]): decreased | induction of histone Kla by hypoxia (MCF-7 cells [4]): attenuated | induction of lactate production by hypoxia (MCF-7 cells [4]): attenuated

transcription ([5]; autoradiography): a corresponding effect on transcription
Compound: C[C@H](O)C(=O)SCCNC(=O)CCNC(=O)[C@H](O)C(C)(C)COP(=O)(O)OP(=O)(O)OC[C@H]1O[C@@H](n2cnc3c(N)ncnc32)[C@H](O)[C@@H]1OP(=O)(O)O [L-lactyl-CoA]
H3 and H4 lactylation ([5]; immunoblot): robust p53-dependent, p300-mediated H3 and H4 lactylation

Compound: C[C@H](O)C(=O)O [lactate, L-(+)-lactic acid]
histone Kla levels (MCF-7 cells [2]): elevated in a dose-dependent fashion | early pro-inflammatory gene expression (BMDM cells; [6]): did not affect | expression of other M2-like genes, such as Vegfa (BMDM cells; [6]): enhanced | Arg1 expression (BMDM cells; [7]): induced | intracellular lactate (BMDM cells; [7]): increased | histone Kla levels (BMDM cells; exogenous lactic acid 25 mM added 4 h post-M1 polarization, immunoblot): increased | Kla levels at the Arg1 promoter (BMDM cells; exogenous lactic acid 25 mM, H3K18la ChIP-qPCR): induced

Compound: C=C(C)[C@H]1Cc2c(ccc3c2O[C@@H]2COc4cc(OC)c(OC)cc4[C@@H]2C3=O)O1 [rotenone]
intracellular lactate levels / lactate production (MCF-7 cells [1]): increased | histone Kla levels (MCF-7 cells [2]): increased

Compound: GNE-140
13C incorporation into histone Kla (BMDMs): reduced
